Measurements taken from patent US6365359B1 (The Regents of the University of California, priority 1997, dated 2002).
Where a SMILES comes first, the peptide text is derived from it. [ ]: non-standard residue; d: D form. The star is where a group is joined. AMC = Cc1cc(=O)oc2cc(N*)ccc12; pGlu = O=C1CC[C@@H](C(=O)O)N1; Cbz = O=C(OCc1ccccc1)*

Tested on: PrP^Sc formation in transiently transfected ScN2a cells
Assay type: cell-based, mouse

Molecule | Results (effect on transiently transfected ScN2a cells; inhibitory effect on PrP^Sc formation)
2′-O-Anthramiloy Indenosine 3′5′-Cyclic Monophosphate [Compound 40] | Negative
6-Morpholino-5-Nitroimidazol [Compound 66] | Negative
CCCCC(NC(=O)CCl)C(=O)O (racemic) [Compound 6, Chloroacetyl-DL-Nortencine] | Negative
CN1C(=O)C(CCCNC(=N)N)NC1=S.Cl (racemic) [Compound 34, MTH-DL-Arginine HCI] | Negative
O=C(O)C(Cc1cnc[nH]1)N1C(=O)c2ccccc2C1=O (racemic) [Compound 45, N Phrhaloyl-DL-Histidine] | Negative
O=C(O)/C=C/c1c[nH]cn1 [Compound 1, Urocanic Acid] | Negative
Nc1ncnc2c1ncn2[C@H]1O[C@H](CO)[C@@H](O)[C@H]1O [Compound 3, α-Adenosine] | Negative
O=P(O)(O)OC[C@H]1O[C@@H](n2cnc3c2ncn2ccnc32)[C@H](O)[C@@H]1O [Compound 7, 1, N6-Ethenoadenosine-5′-Monophosphate] | Positive
NC[C@H]1O[C@H](O[C@H]2[C@H](O)[C@@H](O)[C@H](N)C[C@@H]2N)[C@H](N)[C@@H](O)[C@@H]1O [Compound 9, Neamine] | Negative
Nc1ccn([C@@H]2O[C@H](CO)[C@@H](OP(=O)(O)OC[C@H]3O[C@@H](n4cnc5c(=O)[nH]c(N)nc54)[C@H](O)[C@@H]3O)[C@H]2O)c(=O)n1 [Compound 10, Cytidylyl (3′5′) Guanosine] | Negative
Cn1c(=O)c2c(ncn2C)n(C)c1=O [Compound 13, Caffeine, reference compound] | Negative
N=C(N)c1ccc(-c2cc3ccc(C(=N)N)cc3[nH]2)cc1 [Compound 14, 4′,6-Diamidino-2 Phenylindole] | Negative
NCCC(O)C(=O)NC1CC(N)C(OC2OC(CN)C(O)[C@H](O)[C@@H]2N)[C@H](OC2O[C@H](CO)[C@@H](O)[C@@H]2O)[C@@H]1O.O=S(=O)(O)O.O=S(=O)(O)O (stereo partly drawn) [Compound 15, Butirosin Disulfate Salt, reference compound] | Negative
CN(C)c1ncnc2c1ncn2[C@@H]1O[C@H](CO)[C@@H](N)[C@H]1O [Compound 16, Puromycin Aminonucleoside] | Negative
CC(=O)O[C@@H]1[C@H](OC(C)=O)[C@@H](CO)O[C@H]1n1cnc2c(=O)[nH]c(N)nc21 [Compound 17, 2′3′-Di-O-Acetylguanoside] | Negative
OC[C@H]1O[C@@H](n2cnc3cncnc32)[C@H](O)[C@@H]1O [Compound 18, Purine Riboside] | Positive
NC[C@H]1O[C@H](O[C@H]2[C@H](O[C@@H]3O[C@H](CO)[C@@H](O)[C@H]3O)[C@@H](O)[C@H](N)C[C@@H]2N)[C@H](N)[C@@H](O)[C@@H]1O [Compound 21, Ribostamycin, reference compound] | Negative
NC[C@@H]1CC[C@@H](N)[C@@H](O[C@H]2[C@H](O)[C@@H](O[C@H]3O[C@H](CO)[C@@H](O)[C@H](N)[C@H]3O)[C@H](N)C[C@@H]2N)O1 [Compound 22, Dibekacin, reference compound] | Negative
CN[C@@H]1[C@@H](O)[C@@H](O[C@@H]2[C@@H](O)[C@H](O[C@H]3OC(CN)=CC[C@H]3N)[C@@H](N)C[C@H]2N)OC[C@]1(C)O [Compound 23, Sisomycin, reference compound] | Negative
N=C(N)c1ccc(Oc2ccc(-c3cc4ccc(C(=N)N)cc4[nH]3)cc2)cc1 [Compound 25, Amidinophenyl (6 Amidino-2-indolyl)Phenyl Ether] | Negative
Nc1ccn([C@@H]2O[C@H](COP(=O)(O)O[C@H]3[C@@H](O)[C@H](n4cnc5c(N)ncnc54)O[C@@H]3CO)[C@@H](O)[C@H]2O)c(=O)n1 [Compound 27, Adenylyl (3′5′)Cytidine] | Negative
Nc1nc2c(ncn2[C@@H]2O[C@H](COP(=O)(O)O[C@@H]3[C@H](O)[C@@H](CO)O[C@H]3n3cnc4c(=O)[nH]c(N)nc43)[C@@H](O)[C@H]2O)c(=O)[nH]1 [Compound 28, Guanylyl (2′5′)Guanosine] | Negative
Nc1ncnc2c1ncn2[C@@H]1O[C@H](CO)[C@H]2OP(=O)([O-])O[C@H]21.[Na+] [Compound 29, Adenosine 2′3′cyclic monophosphase sodium salt] | Negative

Molecule | Results (effect on transiently transfected ScN2a cells; inhibitory effect on PrP^Sc formation)
CC(=O)O[C@@H]1[C@H](OC(C)=O)[C@@H](CO)O[C@H]1n1cnc2c(N)ncnc21 [Compound 32, 2′3′-Di-O-Acetyladenosine] | Positive
O=P(O)(O)O[C@H]1[C@@H](O)[C@H](n2cnc3c(O)ncnc32)O[C@@H]1CO [Compound 36, Inosine 3′-Monophosphate] | Negative
NC(=NO)c1nc[nH]c1N [Compound 37, Amino Imidazole Carobxamidoxime] | Negative
NC(=O)NC(NC(N)=O)C(=O)O [Compound 38, Allentoic Acid] | Negative
NCC[C@H](O)C(=O)N[C@@H]1C[C@H](N)[C@@H](O[C@H]2O[C@H](CN)[C@@H](O)[C@H](O)[C@H]2O)[C@H](O)[C@H]1O[C@H]1O[C@H](CO)[C@@H](O)[C@H](N)[C@H]1O [Compound 39, Amikacin, reference compound] | Negative
NC(=O)c1ccc(C(=O)O)cc1C(=O)O [Compound 41, Trimellitic Acid Amide] | Negative
[H]/N=C(/N)N[C@H]1[C@H](O)[C@@H](O)[C@H](O[C@@H]2O[C@@H](C)[C@](O)(C=O)[C@H]2O[C@@H]2O[C@@H](CO)[C@H](O)[C@@H](O)[C@@H]2NC)[C@@H](N/C(N)=N\[H])[C@@H]1O [Compound 42, Streptomycin, reference compound] | Negative
CC1(C)C(=O)NC(=O)N1SN1C(=O)NC(=O)C1(C)C [Compound 44, 1,1, Thhiobis 5,5′ Dimethyl hydratoin] | Negative
Nc1ccc(Cc2ccc(N)cc2[N+](=O)[O-])cc1 [Compound 47, 3 mitro 4,4′ methylamediamiline] | Negative
O=C(NC(CO)Cc1c[nH]cn1)c1ccccc1 [Compound 48, n-alphabenzoyl-L-Histidinol] | Negative
COc1ccc(OC)c(NC(=N)N)c1.O=C(O)O [Compound 51, 2,5 Dimethoxy-phenylguanidine Carbonate] | Negative
Cc1cc(=O)oc2cc(NC(=O)[C@H](CCCNC(=N)N)NC(=O)[C@H](Cc3ccccc3)NC(=O)OCc3ccccc3)ccc12.Cl [Compound 53, Z-Phenyl-Arginyl-7-Amido-4-Methylcoumarin Hcl] (Cbz-Phe-Arg-{AMC}) | Negative
Br.N=C(N)NCCC[C@H](NC(=O)OCc1ccccc1)C(=O)OCc1ccc([N+](=O)[O-])cc1 [Compound 54, Z-ARG-OBZL (P-NO2)HBR] | Negative
Cl.NC(N)=NC(=O)c1nc(Cl)c(N)nc1N [Compound 69, Amiloride-HCI, reference compound] | Negative
BOC-Val-Gly-Arg-βNa-AcOH [Compound 49] | Negative
H-Ala-Arg-Oh Acetate [Compound 5] | Negative
Hydroxyguanidino-purine Riboside [Compound 26] | Negative
Leu-Asp-Val-Pro-Ser (LDVPS; printed: Leu-Asp-Val-Pro-Ser) [Compound 57] | Negative
Naphtha (Terbutoxycarbonyl)-L-Arginine [Compound 2] | Negative
PGlu-Gly-Arg-Phe Amide ([pGlu]GRF-NH2; SMILES N=C(N)NCCC[C@H](NC(=O)CNC(=O)[C@@H]1CCC(=O)N1)C(=O)N[C@@H](Cc1ccccc1)C(N)=O) [Compound 20] | Negative
[Glu]-TRH [Compound 55] | negative
[Mei(O)4, D-Lyss, Pho9]-Fragment 4-9 [Compound 30] | Negative
